Test results as given in BigSolDB 2.1.

CC(=O)Nc1ccc(CC(=O)O)cc1
solubility (mole fraction)
Conditions | 278.15 K | 283.15 K | 288.15 K | 293.15 K | 298.15 K | 303.15 K | 308.15 K | 313.15 K | 318.15 K
in 2-butanone | 0.00496 | 0.00586 | 0.00689 | 0.00821 | 0.00975 | 0.0115 | 0.0137 | 0.0162 | 0.0192
in acetone | 0.00366 | 0.00441 | 0.00534 | 0.00646 | 0.0078 | 0.00942 | 0.0114 | 0.0136 | 0.0161
in acetonitrile | 0.00093 | 0.00116 | 0.00142 | 0.00175 | 0.00215 | 0.00262 | 0.00318 | 0.00381 | 0.00455
in cyclohexane | – | 1.89e-06 | 2.51e-06 | 3.4e-06 | 4.44e-06 | 5.83e-06 | 7.44e-06 | 9.5e-06 | 1.21e-05
in ethanol | 0.0062 | 0.00723 | 0.00851 | 0.0102 | 0.0121 | 0.0143 | 0.0171 | 0.0201 | 0.0238
in ethyl acetate | 0.000627 | 0.000783 | 0.000985 | 0.00126 | 0.00156 | 0.00193 | 0.00238 | 0.00291 | 0.00357
in isopropanol | 0.00293 | 0.00353 | 0.00437 | 0.0054 | 0.00666 | 0.00823 | 0.0101 | 0.0123 | 0.0149
in methanol | 0.00792 | 0.00927 | 0.0113 | 0.0138 | 0.0169 | 0.0207 | 0.0249 | 0.0303 | 0.0369
in n-butanol | 0.00401 | 0.0048 | 0.0058 | 0.00711 | 0.00871 | 0.0105 | 0.0126 | 0.0149 | 0.0178
in n-propanol | 0.00538 | 0.00628 | 0.00745 | 0.00889 | 0.0105 | 0.0126 | 0.0149 | 0.0175 | 0.0204
in toluene | 2.62e-06 | 3.44e-06 | 4.5e-06 | 5.88e-06 | 7.6e-06 | 9.71e-06 | 1.24e-05 | 1.59e-05 | 2.04e-05
in water | 0.000163 | 0.000208 | 0.000264 | 0.000336 | 0.000421 | 0.000534 | 0.000661 | 0.000826 | 0.00104
